{"source": "PubChem BioAssay AID248", "about": "(DTP/NCI, 2004)", "system": "L1210 leukemia ip in BDF1 mice, survival T/C", "assay": "NCI In Vivo Anticancer Drug Screen. Data for tumor model L1210 Leukemia (intraperitoneal) in B6D2F1 (BDF1) mice", "details": "endpoint: mean survival time, higher = longer survival", "method_in_brief": "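In this screen, tumor-bearing mice given compound are compared to those given vehicle, and their survival values are reported as a treated-to-control quotient.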", "note": "Several values for one entry are separate records, joined by “and”; a condition that tells them apart may be missing. Equal values may be shown once. Inconclusive results and toxic doses are left out."}
{"smiles": "CCOC(=O)CC[P+](c1ccccc1)(c1ccccc1)c1ccccc1", "values": [{"measurement": "T/C", "setting": "dose: 75.0 mg/kg/injection, schedule: Q01DX001 (ip), vehicle: saline", "value": "103 % of control"}, {"measurement": "T/C", "setting": "dose: 75.0 mg/kg/injection, schedule: Q04DX003 (ip), vehicle: saline", "value": "106 % of control"}, {"measurement": "T/C", "setting": "dose: 150.0 mg/kg/injection, schedule: Q01DX001 (ip), vehicle: saline", "value": "109 % of control"}, {"measurement": "T/C", "setting": "dose: 150.0 mg/kg/injection, schedule: Q04DX003 (ip), vehicle: saline", "value": "105 % of control"}, {"measurement": "T/C", "setting": "dose: 300.0 mg/kg/injection, schedule: Q01DX001 (ip), vehicle: saline", "value": "101 % of control"}, {"measurement": "T/C", "setting": "dose: 300.0 mg/kg/injection, schedule: Q04DX003 (ip), vehicle: saline", "value": "107 % of control"}]}
{"smiles": "COc1cc(CCN)ccc1OCc1ccccc1", "values": [{"measurement": "T/C", "setting": "dose: 25.0 mg/kg/injection, schedule: Q04DX003 (ip), vehicle: Klucel (hydroxypropylcellulose) (HPC)", "value": "97 % of control"}, {"measurement": "T/C", "setting": "dose: 50.0 mg/kg/injection, schedule: Q04DX003 (ip), vehicle: Klucel (hydroxypropylcellulose) (HPC)", "value": "101 % of control"}, {"measurement": "T/C", "setting": "dose: 100.0 mg/kg/injection, schedule: Q01DX001 (ip), vehicle: Klucel (hydroxypropylcellulose) (HPC)", "value": "96 % of control"}, {"measurement": "T/C", "setting": "dose: 100.0 mg/kg/injection, schedule: Q04DX003 (ip), vehicle: Klucel (hydroxypropylcellulose) (HPC)", "value": "104 % of control and 105 % of control"}, {"measurement": "T/C", "setting": "dose: 200.0 mg/kg/injection, schedule: Q01DX001 (ip), vehicle: Klucel (hydroxypropylcellulose) (HPC)", "value": "94 % of control"}]}
{"smiles": "Cc1cccc(N(CCOC(=O)Nc2cccc(Cl)c2)CCOC(=O)Nc2cccc(Cl)c2)c1", "values": [{"measurement": "T/C", "setting": "dose: 200.0 mg/kg/injection, schedule: Q01DX001 (ip), vehicle: saline", "value": "100 % of control"}, {"measurement": "T/C", "setting": "dose: 400.0 mg/kg/injection, schedule: Q01DX001 (ip), vehicle: saline", "value": "89 % of control"}]}
{"smiles": "COc1cc2c(cc1NC(=O)N(CCCl)N=O)-c1ccccc1C2", "values": [{"measurement": "T/C", "setting": "dose: 22.0 mg/kg/injection, schedule: Q01DX009 (ip), vehicle: carboxymethylcellulose (CMC)", "value": "150 % of control"}, {"measurement": "T/C", "setting": "dose: 33.0 mg/kg/injection, schedule: Q01DX009 (ip), vehicle: carboxymethylcellulose (CMC)", "value": "152 % of control"}, {"measurement": "T/C", "setting": "dose: 50.0 mg/kg/injection, schedule: Q01DX009 (ip), vehicle: carboxymethylcellulose (CMC)", "value": "169 % of control"}, {"measurement": "T/C", "setting": "dose: 75.0 mg/kg/injection, schedule: Q01DX009 (ip), vehicle: carboxymethylcellulose (CMC)", "value": "152 % of control"}, {"measurement": "T/C", "setting": "dose: 118.0 mg/kg/injection, schedule: Q01DX009 (ip), vehicle: carboxymethylcellulose (CMC)", "value": "250 % of control"}, {"measurement": "T/C", "setting": "dose: 177.0 mg/kg/injection, schedule: Q01DX001 (ip), vehicle: other", "value": "123 % of control"}, {"measurement": "T/C", "setting": "dose: 177.0 mg/kg/injection, schedule: Q01DX009 (ip), vehicle: carboxymethylcellulose (CMC)", "value": "256 % of control"}, {"measurement": "T/C", "setting": "dose: 266.0 mg/kg/injection, schedule: Q01DX001 (ip), vehicle: carboxymethylcellulose (CMC)", "value": "151 % of control"}, {"measurement": "T/C", "setting": "dose: 266.0 mg/kg/injection, schedule: Q01DX001 (ip), vehicle: other", "value": "155 % of control"}, {"measurement": "T/C", "setting": "dose: 266.0 mg/kg/injection, schedule: Q01DX009 (ip), vehicle: carboxymethylcellulose (CMC)", "value": "284 % of control"}, {"measurement": "T/C", "setting": "dose: 400.0 mg/kg/injection, schedule: Q01DX001 (ip), vehicle: carboxymethylcellulose (CMC)", "value": "173 % of control"}, {"measurement": "T/C", "setting": "dose: 400.0 mg/kg/injection, schedule: Q01DX001 (ip), vehicle: other", "value": "170 % of control"}, {"measurement": "T/C", "setting": "dose: 400.0 mg/kg/injection, schedule: Q01DX009 (ip), vehicle: carboxymethylcellulose (CMC)", "value": "196 % of control"}, {"measurement": "T/C", "setting": "dose: 600.0 mg/kg/injection, schedule: Q01DX001 (ip), vehicle: carboxymethylcellulose (CMC)", "value": "196 % of control"}, {"measurement": "T/C", "setting": "dose: 600.0 mg/kg/injection, schedule: Q01DX001 (ip), vehicle: other", "value": "164 % of control"}]}
{"smiles": "O=P(N1CCCCCC1)(N1CC1)N1CC1", "values": [{"measurement": "T/C", "setting": "dose: 1.7 mg/kg/injection, schedule: Q01DX Z (ip), vehicle: saline", "value": "107 % of control"}, {"measurement": "T/C", "setting": "dose: 2.6 mg/kg/injection, schedule: Q01DX Z (ip), vehicle: saline", "value": "114 % of control"}, {"measurement": "T/C", "setting": "dose: 4.0 mg/kg/injection, schedule: Q01DX Z (ip), vehicle: saline", "value": "120 % of control"}, {"measurement": "T/C", "setting": "dose: 9.0 mg/kg/injection, schedule: Q01DX Z (ip), vehicle: saline", "value": "152 % of control"}]}
{"smiles": "CN(CC(C)(C)C=O)CC(C)(C)C=O", "values": [{"measurement": "T/C", "setting": "dose: 100.0 mg/kg/injection, schedule: Q04DX002 (ip), vehicle: saline", "value": "112 % of control"}, {"measurement": "T/C", "setting": "dose: 200.0 mg/kg/injection, schedule: Q04DX002 (ip), vehicle: saline", "value": "101 % of control"}, {"measurement": "T/C", "setting": "dose: 400.0 mg/kg/injection, schedule: Q04DX002 (ip), vehicle: saline", "value": "108 % of control"}]}
